Measurements published in article PMC8826081, “Three-Carbon Linked Dihydroartemisinin-Isatin Hybrids: Design, Synthesis and Their Antiproliferative Anticancer Activity” (Frontiers in Pharmacology, 2022).

Assays:
A549 lung cancer cells = assay: MTT antiproliferative activity against A549; type: cell-based; details: Homo sapiens; MTT assay, drug-sensitive A549
Text: (§1) 3-(4,5-dimethylthiazol-2-yl)-2,5-diphenyltetrazolium bromide (MTT) assay was used to determined the antiproliferative activity of dihydroartemisinin-isatin hybrids 5a-e and 6a-j with three-carbon linker against A549, multidrug-resistant A549/DOX and A549/DDP lung cancer cell lines as well as cytotoxicity towards normal lung epithelial cell line (BEAS-2B). The inhibitory effects were expressed in terms of half maximal inhibitory concentration (IC50) values.
(§2) A549, A549/DOX, and A549/DDP lung cancer cells (2×10^3) were plated in each well of a 96-well plate and were allowed to adhere and spread for 24 h. The […] were added to a final concentration of 100 µM, and the cells were cultured for 24 h at 37 °C. 3-(4,5-dimethyl-2-thiazolyl)-2,5-diphenyltetrazolium bromide (MTT) solution (10 µL) was added to each well, and the cultures were incubated for an additional 4 h. A further 100 µL of […] was added and incubation continued overnight. The absorbance at 540 nm was determined in each well with a 96-well plate reader. The growth of the treated cells was compared with that of untreated cells.

[1] = test system: A549/DOX (doxorubicin-resistant A549 cells); assay: MTT antiproliferative activity against doxorubicin-resistant A549; type: cell-based; details: for IC50: Homo sapiens, MTT assay, doxorubicin-resistant A549 cells
Text: as §1, §2

[2] = test system: A549/DDP (cisplatin-resistant A549 cells); assay: MTT antiproliferative activity against cisplatin-resistant A549; type: cell-based; details: for IC50: Homo sapiens, MTT assay, cisplatin-resistant A549 cells
Text: as §1, §2

in vitro = details: human
Experimental: as §1
(§3) The compounds were dissolved in DMSO with concentrations from 1024 to 1 μg/mL. The NIH/3T3 cells were maintained in culture medium at 37 °C under 5% CO2 atmosphere. Cells were seeded in 96-well plates (1×10^4 cell per well) and allowed to recover for 24 h. After 72 h of exposure, cells were harvested and cell viability was assessed by MTT assay. The CC50 values were calculated by Bliss analysis.

[3] = test system: BEAS-2B normal lung epithelial cell line; assay: MTT cytotoxicity towards normal lung epithelial cells; details: IC50(BEAS-2B)/IC50(A549)
Experimental: as §1, §3

[4] = Metabolic stability in mouse liver microsomes; type: in vitro ADME; details: in vitro stability
[5] = Metabolic stability in human liver microsomes; type: in vitro ADME; details: in vitro stability
[6] = Pharmacokinetic properties in CD-1 mice; type: in vivo; details: mouse, plasma; for bioavailability: 30 mg/kg, read-out: F (bioavailability); for AUC / Cmax / clearance / half-life / Tmax: single intravenous dose of 30 mg/kg; for Tmax: read-out: tmax (peak time) (converted)
Experimental: CD-1 mice model was administered with single intravenous […]) dose of 30 mg/kg to test the pharmacokinetic properties of hybrid 6a, e.
CD-1 mice mice (20-25 g) were used in the pharmacokinetic study, and each treatment group had 3 mice which were dosed with […] suspension at 30 mg/kg by single intravenous (iv) administration. Compounds were suspended in 0.5% CMC for iv, and blood was collected from the jugular vein of each mouse at the following time points: 0.25, 0.5, 1, 2, 4, 6, 8 and 24 h after […] administration. Total area under the concentration time curve (AUC), the elimination half-time (t1/2), the peak concentration (Cmax) and the time to reach peak concentration (Tmax) of samples were determined directly from the experimental data using WinNonlin V6.2.1.

[7] = test system: A549, A549/DOX and A549/DDP lung cancer cell lines; assay: MTT antiproliferative activity, summarised over the three lung cancer cell lines; type: cell-based; details: for IC50: MTT assay, span of values over the three lung cancer cell lines, read-out: IC50 (range over A549, A549/DOX and A549/DDP); for times superior to cisplatin and doxorubicin: against multidrug-resistant A549/DOX and A549/DDP; for RI (drug resistance index: IC50(MDR A549)/IC50(A549)): span over RI1 and RI2
Text: as §1, §2

IC50 (A549 lung cancer cells) | IC50 [1] | RI1 (Resistance index: IC50(A549/DOX)/IC50(A549)) [1] | IC50 [2] | IC50 (in vitro) | Liver microsomes Mouse [4] | Liver microsomes Human [5] | bioavailability [6] | AUC [6] | Cmax [6] | clearance [6] | half-life [6] | Tmax [6] | IC50 [7] | RI (drug resistance index: IC50(MDR A549)/IC50(A549)) [7] | RI2 (Resistance index: IC50(A549/DDP)/IC50(A549)) [2] | Structure (SMILES) | SI (Selectivity index: IC50(BEAS-2B)/IC50(A549)) [3] | times superior to cisplatin and doxorubicin [7]
5.72 µM | 7.35 µM | 1.28 | 9.84 µM | > 100 µM | 70% | 62% | 39.7% | 2350 ng·h/mL | 18.9 µM | 62.3 mL/min/kg | 3.1 h | 0.267 h | 5.72 to 9.84 µM | 1.03–1.66 |  | C[C@@H]1CC[C@H]2[C@@H](C)C(OCCCN3C(=O)C(=NO)c4ccccc43)O[C@@H]3O[C@@]4(C)CC[C@@H]1[C@]32OO4 (stereo partly drawn) [6a, 3-(hydroxyimino)-1-(3-(((3R,5aS,6R,8aS,9R,12R,12aR)-3,6,9-trimethyldecahydro-12H-3,12-epoxy[1,2]dioxepino[4,3-i]isochromen-10-yl)oxy)propyl)indolin-2-one] | >17.4 | 1.5–10.8 times
5.99 µM | 8.93 µM | 1.49 | 6.17 µM | > 100 µM | 54% | 51% | 30.8% | 1670 ng·h/mL | 10.7 µM | 44.8 mL/min/kg | 4.7 h | 0.2 h | 5.72 to 9.84 µM | 1.03–1.66 | 1.03 | C[C@@H]1CC[C@H]2[C@@H](C)C(OCCCN3C(=O)C(=NNC(N)=S)c4cc(F)ccc43)O[C@@H]3O[C@@]4(C)CC[C@@H]1[C@]32OO4 (stereo partly drawn) [6e, 2-(5-fluoro-2-oxo-1-(3-(((3R,5aS,6R,8aS,9R,12R,12aR)-3,6,9-trimethyldecahydro-12H-3,12-epoxy[1,2]dioxepino[4,3-i]isochromen-10-yl)oxy)propyl)indolin-3-ylidene)hydrazine-1-carbothioamide] | >16.6 | 1.5–10.8 times
51.6 µM | 73.5 µM |  | 60.2 µM | > 100 µM |  |  |  |  |  |  |  |  |  |  | 1.17 | COc1ccc2c(c1)C(=NO)C(=O)N2CCCOC1O[C@@H]2O[C@@]3(C)CC[C@H]4[C@H](C)CC[C@@H]([C@H]1C)[C@@]24OO3 (stereo partly drawn) [6i, 3-(hydroxyimino)-5-methoxy-1-(3-(((3R,5aS,6R,8aS,9R,12R,12aR)-3,6,9-trimethyldecahydro-12H-3,12-epoxy[1,2]dioxepino[4,3-i]isochromen-10-yl)oxy)propyl)indolin-2-one] | >1.9 | 
52.6 µM | 78.5 µM |  | 40.7 µM | > 100 µM |  |  |  |  |  |  |  |  |  |  | 0.77 | COc1ccc2c(c1)C(=NNC(N)=S)C(=O)N2CCCOC1O[C@@H]2O[C@@]3(C)CC[C@H]4[C@H](C)CC[C@@H]([C@H]1C)[C@@]24OO3 (stereo partly drawn) [6j, 2-(5-methoxy-2-oxo-1-(3-(((3R,5aS,6R,8aS,9R,12R,12aR)-3,6,9-trimethyldecahydro-12H-3,12-epoxy[1,2]dioxepino[4,3-i]isochromen-10-yl)oxy)propyl)indolin-3-ylidene)hydrazine-1-carbothioamide] | >1.9 | 
69.4 µM | 88 µM | 1.27 | 75.9 µM | > 100 µM |  |  |  |  |  |  |  |  | 69.4 to 88 µM |  | 1.09 | C[C@H]1[C@@H](O)O[C@@H]2O[C@@]3(C)CC[C@H]4[C@H](C)CC[C@@H]1[C@@]24OO3 [DHA, Dihydroartemisinin] | >1.4 | 
